# Measured values taken from the kinase profiling compilation of Christmann-Franck et al. (2016).
# Key:
# Assay in all cases: KINOMEscan competition binding
# Conditions in all cases: compound 10.0 µM
# CLK1 (human) = CLK1 (human) (UniProt P49759)
# BRSK2 (human) = BRSK2 (human) (UniProt Q8IWQ3)
# ULK1 (human) = ULK1 (human) (UniProt O75385)
# MAPK9 (human) = MAPK9 (human) (UniProt P45984)
# MAPK3 (human) = MAPK3 (human) (UniProt P27361)
# SRC (human) = SRC (human) (UniProt P12931)
# PRKAA1 (human) = PRKAA1 (human) (UniProt Q13131)
# CDC42BPB (human) = CDC42BPB (human) (UniProt Q9Y5S2)
# RIOK2 (human) = RIOK2 (human) (UniProt Q9BVS4)
# CAMK1D (human) = CAMK1D (human) (UniProt Q8IU85)
# BRSK1 (human) = BRSK1 (human) (UniProt Q8TDC3)
# FLT1 (human) = FLT1 (human) (UniProt P17948)
# RIPK1 (human) = RIPK1 (human) (UniProt Q13546)
# ZAP70 (human) = ZAP70 (human) (UniProt P43403)
# ITK (human) = ITK (human) (UniProt Q08881)
# STK33 (human) = STK33 (human) (UniProt Q9BYT3)
# STK33 (human), sequence (Q9BYT3 whole entry, looked up): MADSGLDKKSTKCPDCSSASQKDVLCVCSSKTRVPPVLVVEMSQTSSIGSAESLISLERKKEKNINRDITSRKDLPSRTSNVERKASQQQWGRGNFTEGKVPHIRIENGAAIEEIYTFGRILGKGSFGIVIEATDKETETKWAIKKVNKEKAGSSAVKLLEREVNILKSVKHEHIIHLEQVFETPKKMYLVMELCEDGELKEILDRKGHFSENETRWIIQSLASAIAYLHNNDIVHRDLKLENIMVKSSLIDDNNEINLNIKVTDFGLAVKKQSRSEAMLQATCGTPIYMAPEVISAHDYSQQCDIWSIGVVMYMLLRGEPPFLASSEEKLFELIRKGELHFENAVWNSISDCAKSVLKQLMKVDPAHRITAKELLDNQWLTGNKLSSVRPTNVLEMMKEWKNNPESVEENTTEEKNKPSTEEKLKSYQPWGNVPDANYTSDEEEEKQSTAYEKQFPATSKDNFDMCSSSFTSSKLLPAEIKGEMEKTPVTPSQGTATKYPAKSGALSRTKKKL
# ULK3 (human) = ULK3 (human) (UniProt Q6PHR2)
# EPHA7 (human) = EPHA7 (human) (UniProt Q15375)
# MELK (human) = MELK (human) (UniProt Q14680)
# DCLK2 (human) = DCLK2 (human) (UniProt Q8N568)
# EPHB3 (human) = EPHB3 (human) (UniProt P54753)
# EPHB3 (human), sequence (P54753 whole entry, looked up): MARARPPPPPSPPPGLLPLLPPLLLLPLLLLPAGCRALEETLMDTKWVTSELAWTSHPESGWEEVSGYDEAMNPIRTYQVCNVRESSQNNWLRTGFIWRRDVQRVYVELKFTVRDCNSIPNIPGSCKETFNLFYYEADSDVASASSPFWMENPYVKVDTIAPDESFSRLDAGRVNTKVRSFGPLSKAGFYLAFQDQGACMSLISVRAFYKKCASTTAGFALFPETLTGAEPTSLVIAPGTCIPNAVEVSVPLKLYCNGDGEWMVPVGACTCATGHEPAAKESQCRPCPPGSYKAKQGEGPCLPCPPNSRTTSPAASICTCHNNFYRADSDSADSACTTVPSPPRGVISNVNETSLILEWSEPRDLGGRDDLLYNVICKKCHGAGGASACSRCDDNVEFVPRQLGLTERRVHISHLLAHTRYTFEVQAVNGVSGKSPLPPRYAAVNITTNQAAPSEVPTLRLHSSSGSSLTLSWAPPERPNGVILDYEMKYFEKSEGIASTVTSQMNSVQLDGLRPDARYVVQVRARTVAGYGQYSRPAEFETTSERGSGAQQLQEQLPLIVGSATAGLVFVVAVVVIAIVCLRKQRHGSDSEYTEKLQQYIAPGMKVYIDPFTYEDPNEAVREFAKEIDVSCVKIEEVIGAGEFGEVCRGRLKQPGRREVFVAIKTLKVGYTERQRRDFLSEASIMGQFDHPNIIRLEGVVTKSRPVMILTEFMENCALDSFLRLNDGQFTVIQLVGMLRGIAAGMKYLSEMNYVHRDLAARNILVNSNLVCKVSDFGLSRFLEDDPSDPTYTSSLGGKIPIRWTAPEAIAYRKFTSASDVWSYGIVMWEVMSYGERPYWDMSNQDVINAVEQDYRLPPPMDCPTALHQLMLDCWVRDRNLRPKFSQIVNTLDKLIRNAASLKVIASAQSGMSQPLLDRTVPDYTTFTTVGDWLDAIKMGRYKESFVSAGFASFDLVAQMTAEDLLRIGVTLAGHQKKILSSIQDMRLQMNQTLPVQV
# WEE1 (human) = WEE1 (human) (UniProt P30291)
# RIOK1 (human) = RIOK1 (human) (UniProt Q9BRS2)
# RPS6KA2 KD1 (human) = RPS6KA2 KD1 (human) (UniProt Q15349)
# CDK15 (human) = CDK15 (human) (UniProt Q96Q40)
# NEK9 (human) = NEK9 (human) (UniProt Q8TD19)
# CSNK1G2 (human) = CSNK1G2 (human) (UniProt P78368)
# CSNK1G2 (human), sequence (P78368 whole entry, looked up): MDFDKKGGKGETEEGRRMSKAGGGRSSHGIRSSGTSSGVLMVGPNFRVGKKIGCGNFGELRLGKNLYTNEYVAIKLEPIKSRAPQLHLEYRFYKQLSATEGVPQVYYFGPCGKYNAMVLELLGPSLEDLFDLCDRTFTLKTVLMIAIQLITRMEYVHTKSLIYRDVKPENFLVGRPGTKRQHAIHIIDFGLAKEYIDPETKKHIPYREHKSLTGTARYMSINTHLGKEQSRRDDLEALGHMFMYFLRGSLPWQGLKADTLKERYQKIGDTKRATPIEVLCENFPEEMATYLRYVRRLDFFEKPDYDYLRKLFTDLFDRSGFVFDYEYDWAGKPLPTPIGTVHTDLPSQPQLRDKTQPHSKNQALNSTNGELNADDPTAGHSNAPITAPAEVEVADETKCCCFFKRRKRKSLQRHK
# NEK7 (human) = NEK7 (human) (UniProt Q8TDX7)
# NEK7 (human), sequence (Q8TDX7 whole entry, looked up): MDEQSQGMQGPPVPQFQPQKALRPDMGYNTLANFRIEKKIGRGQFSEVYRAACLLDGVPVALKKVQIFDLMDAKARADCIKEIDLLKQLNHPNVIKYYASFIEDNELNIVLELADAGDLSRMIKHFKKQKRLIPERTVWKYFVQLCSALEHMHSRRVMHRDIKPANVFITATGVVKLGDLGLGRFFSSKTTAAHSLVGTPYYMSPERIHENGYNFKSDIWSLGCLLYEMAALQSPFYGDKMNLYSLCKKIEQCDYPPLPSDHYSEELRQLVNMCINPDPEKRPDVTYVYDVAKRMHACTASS
# BLK (human) = BLK (human) (UniProt P51451)
# PRKCQ (human) = PRKCQ (human) (UniProt Q04759)
# PRKCQ (human), sequence (Q04759 whole entry, looked up): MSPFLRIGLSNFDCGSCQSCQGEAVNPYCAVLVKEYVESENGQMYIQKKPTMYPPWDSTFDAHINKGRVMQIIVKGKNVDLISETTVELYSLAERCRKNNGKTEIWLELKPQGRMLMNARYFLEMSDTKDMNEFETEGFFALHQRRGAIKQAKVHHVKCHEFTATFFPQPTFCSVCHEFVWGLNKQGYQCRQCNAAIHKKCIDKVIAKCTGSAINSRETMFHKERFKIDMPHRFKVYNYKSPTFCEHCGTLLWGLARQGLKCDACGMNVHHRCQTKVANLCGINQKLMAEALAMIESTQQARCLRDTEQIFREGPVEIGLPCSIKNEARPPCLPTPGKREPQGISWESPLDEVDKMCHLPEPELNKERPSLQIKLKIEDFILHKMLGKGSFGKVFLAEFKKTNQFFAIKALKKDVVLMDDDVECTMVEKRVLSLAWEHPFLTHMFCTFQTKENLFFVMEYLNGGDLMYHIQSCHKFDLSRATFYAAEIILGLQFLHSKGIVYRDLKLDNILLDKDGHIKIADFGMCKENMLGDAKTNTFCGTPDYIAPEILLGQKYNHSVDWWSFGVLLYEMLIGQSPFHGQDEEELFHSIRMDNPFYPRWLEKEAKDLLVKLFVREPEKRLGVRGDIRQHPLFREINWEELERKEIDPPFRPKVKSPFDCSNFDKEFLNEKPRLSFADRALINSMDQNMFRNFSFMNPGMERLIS
# EPHB1 (human) = EPHB1 (human) (UniProt P54762)
# TEC (human) = TEC (human) (UniProt P42680)
# MAPK6 (human) = MAPK6 (human) (UniProt Q16659)
# EPHA2 (human) = EPHA2 (human) (UniProt P29317)
# EPHA2 (human), sequence (P29317 whole entry, looked up): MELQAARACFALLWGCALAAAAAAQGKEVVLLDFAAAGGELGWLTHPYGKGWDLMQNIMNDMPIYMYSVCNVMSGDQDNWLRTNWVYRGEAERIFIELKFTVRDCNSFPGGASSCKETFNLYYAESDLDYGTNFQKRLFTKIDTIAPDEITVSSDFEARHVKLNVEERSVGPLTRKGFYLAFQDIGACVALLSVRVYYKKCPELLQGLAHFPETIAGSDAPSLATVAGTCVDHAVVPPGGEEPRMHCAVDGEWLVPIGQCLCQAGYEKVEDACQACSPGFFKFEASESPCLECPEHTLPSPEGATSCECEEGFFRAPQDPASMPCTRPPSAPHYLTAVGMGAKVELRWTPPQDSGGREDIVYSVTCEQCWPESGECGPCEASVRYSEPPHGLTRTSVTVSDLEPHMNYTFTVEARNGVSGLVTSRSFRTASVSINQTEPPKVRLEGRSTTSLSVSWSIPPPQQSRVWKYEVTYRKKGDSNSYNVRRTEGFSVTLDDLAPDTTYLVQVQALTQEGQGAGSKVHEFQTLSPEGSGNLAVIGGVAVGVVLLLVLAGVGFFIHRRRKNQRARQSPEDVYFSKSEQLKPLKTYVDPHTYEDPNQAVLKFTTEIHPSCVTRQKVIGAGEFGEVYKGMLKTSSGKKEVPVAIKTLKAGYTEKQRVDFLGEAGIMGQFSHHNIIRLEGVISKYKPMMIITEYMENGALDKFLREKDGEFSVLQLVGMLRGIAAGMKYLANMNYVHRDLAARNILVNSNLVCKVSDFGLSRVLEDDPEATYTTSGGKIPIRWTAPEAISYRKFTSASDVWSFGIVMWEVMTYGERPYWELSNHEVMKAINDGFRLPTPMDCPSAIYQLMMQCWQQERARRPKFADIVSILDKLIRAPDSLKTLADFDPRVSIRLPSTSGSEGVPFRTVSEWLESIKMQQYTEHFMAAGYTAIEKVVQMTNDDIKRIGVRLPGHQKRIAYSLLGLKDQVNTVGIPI
# CSNK2A1 (human) = CSNK2A1 (human) (UniProt P68400)
# CSNK2A1 (human), sequence (P68400 whole entry, looked up): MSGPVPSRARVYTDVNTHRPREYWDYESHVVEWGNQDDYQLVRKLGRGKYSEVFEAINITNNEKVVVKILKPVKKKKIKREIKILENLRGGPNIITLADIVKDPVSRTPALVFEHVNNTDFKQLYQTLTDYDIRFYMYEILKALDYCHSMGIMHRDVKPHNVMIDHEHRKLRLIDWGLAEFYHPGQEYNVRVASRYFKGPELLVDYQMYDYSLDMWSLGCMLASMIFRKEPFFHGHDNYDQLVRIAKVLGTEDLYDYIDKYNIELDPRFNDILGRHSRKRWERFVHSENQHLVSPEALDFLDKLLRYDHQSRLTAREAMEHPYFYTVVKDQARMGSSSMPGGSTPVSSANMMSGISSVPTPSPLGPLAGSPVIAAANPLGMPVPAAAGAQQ
# STK25 (human) = STK25 (human) (UniProt O00506)
# SLK (human) = SLK (human) (UniProt Q9H2G2)
# SRMS (human) = SRMS (human) (UniProt Q9H3Y6)
# PHKG1 (human) = PHKG1 (human) (UniProt Q16816)
# BMPR1B (human) = BMPR1B (human) (UniProt O00238)
# MAPK3 (human), sequence (P27361 whole entry, looked up): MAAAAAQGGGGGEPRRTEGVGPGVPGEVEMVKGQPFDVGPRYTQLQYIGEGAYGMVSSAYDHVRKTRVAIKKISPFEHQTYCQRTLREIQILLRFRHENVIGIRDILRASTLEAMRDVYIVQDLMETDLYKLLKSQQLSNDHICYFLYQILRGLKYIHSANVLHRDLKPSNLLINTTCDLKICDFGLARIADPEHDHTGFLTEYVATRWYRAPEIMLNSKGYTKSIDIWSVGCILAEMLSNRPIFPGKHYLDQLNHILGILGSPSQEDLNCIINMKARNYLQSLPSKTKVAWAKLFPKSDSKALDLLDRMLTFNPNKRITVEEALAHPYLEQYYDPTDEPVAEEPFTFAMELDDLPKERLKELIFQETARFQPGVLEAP
smiles,measurement,setting,value
O=C1Nc2ccc(I)cc2/C1=C/c1cc(Br)c(O)c(Br)c1,"kinase still bound, per cent of control",CLK1 (human),34%
same,"kinase still bound, per cent of control",BRSK2 (human),100%
same,"kinase still bound, per cent of control",ULK1 (human),100%
same,"kinase still bound, per cent of control",MAPK9 (human),72%
same,"kinase still bound, per cent of control",MAPK3 (human),100%
same,"kinase still bound, per cent of control",SRC (human),100%
same,"kinase still bound, per cent of control",PRKAA1 (human),100%
same,"kinase still bound, per cent of control",CDC42BPB (human),100%
same,"kinase still bound, per cent of control",RIOK2 (human),35%
same,"kinase still bound, per cent of control",CAMK1D (human),76%
same,"kinase still bound, per cent of control",BRSK1 (human),85%
same,"kinase still bound, per cent of control",FLT1 (human),100%
same,"kinase still bound, per cent of control",RIPK1 (human),85%
same,"kinase still bound, per cent of control",ZAP70 (human),84%
same,"kinase still bound, per cent of control",ITK (human),96%
same,"kinase still bound, per cent of control",STK33 (human),94%
same,"kinase still bound, per cent of control",ULK3 (human),12%
same,"kinase still bound, per cent of control",EPHA7 (human),100%
same,"kinase still bound, per cent of control",MELK (human),99%
same,"kinase still bound, per cent of control",DCLK2 (human),94%
same,"kinase still bound, per cent of control",EPHB3 (human),100%
same,"kinase still bound, per cent of control",WEE1 (human),100%
same,"kinase still bound, per cent of control",RIOK1 (human),14%
same,"kinase still bound, per cent of control",RPS6KA2 KD1 (human),58%
same,"kinase still bound, per cent of control",CDK15 (human),100%
same,"kinase still bound, per cent of control",NEK9 (human),100%
same,"kinase still bound, per cent of control",CSNK1G2 (human),100%
same,"kinase still bound, per cent of control",NEK7 (human),100%
same,"kinase still bound, per cent of control",BLK (human),41%
same,"kinase still bound, per cent of control",PRKCQ (human),90%
same,"kinase still bound, per cent of control",EPHB1 (human),100%
same,"kinase still bound, per cent of control",TEC (human),100%
same,"kinase still bound, per cent of control",MAPK6 (human),100%
same,"kinase still bound, per cent of control",EPHA2 (human),83%
same,"kinase still bound, per cent of control",CSNK2A1 (human),4.2%
same,"kinase still bound, per cent of control",STK25 (human),100%
same,"kinase still bound, per cent of control",SLK (human),100%
same,"kinase still bound, per cent of control",SRMS (human),65%
same,"kinase still bound, per cent of control",PHKG1 (human),85%
same,"kinase still bound, per cent of control",BMPR1B (human),27%
Cc1cc([C@@H](C)Nc2ccccc2C(=O)O)c2nc(N3CCOCC3)cc(=O)n2c1,"kinase still bound, per cent of control",CLK1 (human),74%
same,"kinase still bound, per cent of control",BRSK2 (human),100%
same,"kinase still bound, per cent of control",ULK1 (human),91%
same,"kinase still bound, per cent of control",MAPK9 (human),66%
same,"kinase still bound, per cent of control",MAPK3 (human),95%
same,"kinase still bound, per cent of control",SRC (human),100%
same,"kinase still bound, per cent of control",PRKAA1 (human),100%
same,"kinase still bound, per cent of control",CDC42BPB (human),100%
same,"kinase still bound, per cent of control",RIOK2 (human),54%
same,"kinase still bound, per cent of control",CAMK1D (human),100%
same,"kinase still bound, per cent of control",BRSK1 (human),99%
same,"kinase still bound, per cent of control",FLT1 (human),83%
same,"kinase still bound, per cent of control",RIPK1 (human),100%
same,"kinase still bound, per cent of control",ZAP70 (human),100%
same,"kinase still bound, per cent of control",ITK (human),98%
same,"kinase still bound, per cent of control",STK33 (human),100%
same,"kinase still bound, per cent of control",ULK3 (human),98%
same,"kinase still bound, per cent of control",EPHA7 (human),89%
same,"kinase still bound, per cent of control",MELK (human),100%
same,"kinase still bound, per cent of control",DCLK2 (human),100%
same,"kinase still bound, per cent of control",EPHB3 (human),100%
same,"kinase still bound, per cent of control",WEE1 (human),100%
same,"kinase still bound, per cent of control",RIOK1 (human),100%
same,"kinase still bound, per cent of control",RPS6KA2 KD1 (human),97%
same,"kinase still bound, per cent of control",CDK15 (human),100%
same,"kinase still bound, per cent of control",NEK9 (human),100%
same,"kinase still bound, per cent of control",CSNK1G2 (human),88%
same,"kinase still bound, per cent of control",NEK7 (human),100%
same,"kinase still bound, per cent of control",BLK (human),99%
same,"kinase still bound, per cent of control",PRKCQ (human),97%
same,"kinase still bound, per cent of control",EPHB1 (human),98%
same,"kinase still bound, per cent of control",TEC (human),91%
same,"kinase still bound, per cent of control",MAPK6 (human),100%
same,"kinase still bound, per cent of control",EPHA2 (human),70%
same,"kinase still bound, per cent of control",CSNK2A1 (human),100%
same,"kinase still bound, per cent of control",STK25 (human),76%
same,"kinase still bound, per cent of control",SLK (human),100%
same,"kinase still bound, per cent of control",SRMS (human),63%
same,"kinase still bound, per cent of control",PHKG1 (human),93%
same,"kinase still bound, per cent of control",BMPR1B (human),69%
N#Cc1c(NC(=O)c2cccc3ccccc23)sc2c1CCCC2,"kinase still bound, per cent of control",CLK1 (human),69%
same,"kinase still bound, per cent of control",BRSK2 (human),100%
same,"kinase still bound, per cent of control",ULK1 (human),100%
same,"kinase still bound, per cent of control",MAPK9 (human),4.8%
same,"kinase still bound, per cent of control",MAPK3 (human),74%
same,"kinase still bound, per cent of control",SRC (human),81%
same,"kinase still bound, per cent of control",PRKAA1 (human),80%
same,"kinase still bound, per cent of control",CDC42BPB (human),80%
same,"kinase still bound, per cent of control",RIOK2 (human),91%
same,"kinase still bound, per cent of control",CAMK1D (human),85%
same,"kinase still bound, per cent of control",BRSK1 (human),100%
same,"kinase still bound, per cent of control",FLT1 (human),87%
same,"kinase still bound, per cent of control",RIPK1 (human),87%
same,"kinase still bound, per cent of control",ZAP70 (human),87%
same,"kinase still bound, per cent of control",ITK (human),89%
same,"kinase still bound, per cent of control",STK33 (human),86%
same,"kinase still bound, per cent of control",ULK3 (human),94%
same,"kinase still bound, per cent of control",EPHA7 (human),84%
same,"kinase still bound, per cent of control",MELK (human),85%
same,"kinase still bound, per cent of control",DCLK2 (human),100%
same,"kinase still bound, per cent of control",EPHB3 (human),98%
same,"kinase still bound, per cent of control",WEE1 (human),64%
same,"kinase still bound, per cent of control",RIOK1 (human),100%
same,"kinase still bound, per cent of control",RPS6KA2 KD1 (human),93%
same,"kinase still bound, per cent of control",CDK15 (human),69%
same,"kinase still bound, per cent of control",NEK9 (human),70%
same,"kinase still bound, per cent of control",CSNK1G2 (human),57%
same,"kinase still bound, per cent of control",NEK7 (human),84%
same,"kinase still bound, per cent of control",BLK (human),91%
same,"kinase still bound, per cent of control",PRKCQ (human),86%
same,"kinase still bound, per cent of control",EPHB1 (human),91%
same,"kinase still bound, per cent of control",TEC (human),91%
same,"kinase still bound, per cent of control",MAPK6 (human),86%
same,"kinase still bound, per cent of control",EPHA2 (human),100%
same,"kinase still bound, per cent of control",CSNK2A1 (human),89%
same,"kinase still bound, per cent of control",STK25 (human),93%
same,"kinase still bound, per cent of control",SLK (human),82%
same,"kinase still bound, per cent of control",SRMS (human),84%
same,"kinase still bound, per cent of control",PHKG1 (human),100%
same,"kinase still bound, per cent of control",BMPR1B (human),84%
